Data on one molecule can be found in ChEMBL document CHEMBL1147351, “Sesquiterpenoids and norsesquiterpenoids from the soft coral Lemnalia africana” (J Nat Prod, 1993).

For one data set, the system named is P388. Description: Cytotoxicity against mouse P388 cells at 1 ug/ml. It counts as functional, cell-based.
Data set [1] in a line: Cytotoxicity against african green monkey CV1 cells. Format: cell-based. Conditions: chlorocebus aethiops, cv-1.

Activity calls are given as the source filed them. No cut-off for these calls is given here.

`C[C@H]1CCC=C2CCC(C(C)(O)CO)=C[C@@]21C` (some centres not stated): the outcome with P388 was Active. Besides, the Activity in data set [1] came to 10 µg/mL.
